Among the data in patent US8445440B2, “Dimeric IAP inhibitors” (Novartis AG, priority 2010, dated 2013) are EC50 and IC50 values, retold here.

For one experiment, the target named is XIAP-BIR3 (Homo sapiens, UniProt P98170). As to the kind of experiment: Biacore SPR solution competition binding assay vs smac7 mer peptide, XIAP-BIR3. The note with it: citrate salt form tested; 100 nM XIAP-BIR3; 25° C.; read-out: XIAP-BIR3 Binding Biacore (Competitive) EC50. An excerpt: (§1) The compounds described herein above were profiled using a cellular assay (using SKOV3 or Panc3.27 tumor cells) and a binding assay to determine the competition between the compounds of the present invention and smac7 mer peptide for XIAP-BIR3 and cIAP1-BIR3 binding groove occupancy.
(§2) The present method includes utility of a Surface plasmon resonance (SPR)-based biosensor (Biacore™ GE Healthcare, Uppsala, Sweden) to examine competition between the compounds of the present invention and smac7 mer peptide for XIAP-BIR3 and cIAP1-BIR3 binding groove occupancy.
(§3) Biacore™ utilizes the phenomenon of surface plasmon resonance (SPR) to detect and measure binding interactions. In a typical Biacore experiment, one of the interacting molecules is immobilized on a flexible dextran matrix while the interacting partner is flowed over the derivatized surface. A binding interaction results in an increase in mass on the sensor surface and a corresponding direct change in the refractive index of the medium in the vicinity of the sensor surface. Changes in refractive index or signal are recorded in resonance units (R.U.) Signal changes due to association and dissociation of complexes are monitored in a non-invasive manner, continuously and in real-time, the results of which are reported in the form of a sensorgram.
(§4) Biacore™ T100 (GE Healthcare, Uppsala, Sweden) was used to conduct all experiments reported herein. Sensor surface preparation and interaction analyses were performed at 25° C. Buffer and Biacore reagents were purchased from GE Healthcare. Running buffer containing 10 mM Hepes, pH7.4, 150 mM sodium chloride, 1.25 mM Dithiothreitol, 2% Dimethyl sulfoxide and 0.05% polysorbate 20 was utilized throughout all experiments.
(§5) Biotinylated smac7 mer peptide was diluted to 10 nM in running buffer and captured onto a sensor surface pre-derivatized with streptavidin (sensor chip SA) towards peptide surface densities in the range 40-100 R.U. Peptide captured surfaces were blocked with 500 μM PEO2-Biotin (Thermo Scientific).
(§6) Interaction analyses were performed by first equilibrating each compound within a six point seven fold compound dilution series in the range 1 μM to 0.06 nM with either 100 nM XIAP-BIR3 or 6 nM cIAP1-BIR3 for at least one hour during instrument start-up procedures. Protein compound mixtures were then injected over reference and smac7 mer peptide surfaces in series for 60 seconds at a flow-rate of 64 μL/minutes. Surface regeneration was performed at the end of each analysis cycle by a 30 second injection of 10 mM Glycine, pH 2.5, 1M Sodium Chloride, 0.05% polysorbate 20. Additionally, control compound samples and control XIAP-BIR3 or cIAP1-BIR3 samples were prepared and run at regular intervals to monitor surface and assay performance.
(§7) Data analyses were carried out using Biacore™ T100 evaluation software v2.0 to validate assay quality. Binding level report points were plotted versus logarithmic compound concentration values and analyzed in Graphpad prism 5 via non-linear regression using a one-site competition model. EC50 values were generated and used as a measure of inhibitor potency.
(In general: SPR reads the build-up and loss of mass on a sensor chip optically.)

The target of the next experiment is cIAP1-BIR3 (Homo sapiens, UniProt Q13490). As to the kind of experiment: Biacore SPR solution competition binding assay vs smac7 mer peptide, cIAP1-BIR3. The note with it: citrate salt form tested; 6 nM cIAP1-BIR3; 25° C.; read-out: CIAP-BIR3 Binding Biacore (Competitive) EC50.
Description: as §1, §2, §3, §4, §5, §6, §7

A further experiment concerns SKOV3 tumor cells. Briefly: Cellular assay, SKOV3 tumor cell proliferation (Cell Titer Glo). Type of experiment: cell-based. The note with it: Homo sapiens, SK-OV-3, citrate salt form tested, 72 hour growth. The procedure: as §1
(§8) On day one adherent SKOV3 and Panc3.27 cells are plated into two 96-well, clear, flat bottom plates. All wells in row A contain 90 uL of media. All wells in rows B-G contain a total volume of 90 uL per well and 2000 cells per well for SKOV3 and 4000 cells per well for Panc3.27 cell lines. Plates are then incubated overnight for 18 hours at 37° C., 5% CO2.
(§9) On day two cells are treated with the compounds of formula M-L-M′. Treatments are done in triplicate. The compounds are first serially diluted in DMSO and then added to media giving a final concentration of 0.2% DMSO when added to cells. Cells are treated with 10 uL of serially diluted compounds of formula M-L-M′ at a final concentration of 1000 nM, 200 nM, 40 nM, 8 nM, 1.6 nM, 0.32 nM, 0.06 nM, 0.013 nM, 0.0026 nM, and one untreated well. Plate two is used as a time zero plate.
(§10) To measure cell viability 50 uL of Cell Titer Glo (CTG) solution is added to row A, media only and B, cells and media. CTG is purchased from Promega Corporation catalog number G7573. The solution is prepared according to manufacturer's instructions. CTG measures the amount of ATP released from viable cells that is proportional to the number of cells in each well. After incubating for ten minutes with CTG plates are measured on a luminescent reader at 700 nm wavelength. Read time is approximately one second per well for a 96-well plate.
(§11) On day five 50 uL of CTG is added to plate one, rows A-G, incubated for 10 minutes at room temperature and read on a luminescent reader. Raw data is adjusted to account for the time zero plate as well as background noise. Triplicate values are averaged and percent control growth is calculated. Percent control growth is calculated using the following logical test: If well read data point (a) is greater than time zero data point (t=0), then 100*[(a)−(t=0)]/[(72 hour total growth)−(t=0)], OR 100*[(a)−(t=0)]/[(t=0)]. Data is represented by line graph with the concentration of compound on the x axis and percent control growth on the y axis.
(In general: In ATP-based viability assays light output follows the ATP content of the culture.)

The next experiment relates to Panc3.27 tumor cells. Briefly: Cellular assay, Panc3.27 tumor cell proliferation (Cell Titer Glo). Type of experiment: cell-based. The note with it: citrate salt form tested, Panc3.27 cells, 72 hour growth, read-out: PANC proliferation IC50. The procedure:
as §1, §8, §9, §10, §11

Chain of XIAP-BIR3 (P98170 241-356 limits assumed): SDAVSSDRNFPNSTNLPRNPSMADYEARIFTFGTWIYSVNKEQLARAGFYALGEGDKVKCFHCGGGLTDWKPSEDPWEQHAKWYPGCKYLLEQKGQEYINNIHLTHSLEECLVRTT
Chain of cIAP1-BIR3 (Q13490 260-352 limits assumed): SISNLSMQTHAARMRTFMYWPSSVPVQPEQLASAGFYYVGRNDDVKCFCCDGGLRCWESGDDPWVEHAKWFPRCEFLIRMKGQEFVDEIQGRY

As to `CN[C@@H](C)C(=O)N[C@@H](CCCCNS(=O)(=O)c1ccc2ccc(S(=O)(=O)NCCCC[C@H](NC(=O)[C@H](C)NC)C(=O)N3CCC[C@H]3c3cncc(C(=O)c4ccc(F)cc4)c3)cc2c1)C(=O)N1CCC[C@H]1c1cncc(C(=O)c2ccc(F)cc2)c1` [Example 1H, (S)-N-((S)-1-((S)-2-(5-(4-fluorobenzoyl)pyridin-3-yl)pyrrolidin-1-yl)-6-(7-(N-((S)-6-((S)-2-(5-(4-fluorobenzoyl)pyridin-3-yl)pyrrolidin-1-yl)-5-((S)-2-(methylamino)propanamido)-6-oxohexyl)sulfamoyl)naphthalene-2-sulfonamido)-1-oxohexan-2-yl)-2-(methylamino)propanamide], the EC50 (commonly the midpoint of the concentration-response curve) was 46.3 to 53.5 nM at XIAP-BIR3 and 0.88 nM at cIAP1-BIR3. The IC50 in the experiment with SKOV3 tumor cells lay in the range of 80.8 to 86.4 nM; in the experiment on Panc3.27 tumor cells it was 13.3 to 140 nM.

For `CN[C@@H](C)C(=O)N[C@@H](CCCCNC(=O)CCCCCCCCC(=O)NCCCC[C@H](NC(=O)[C@H](C)NC)C(=O)N1CCC[C@H]1c1cncc(C(=O)c2ccc(F)cc2)c1)C(=O)N1CCC[C@H]1c1cncc(C(=O)c2ccc(F)cc2)c1` [Example 1G, Decanedioic acid bis-{[(S)-6-{(S)-2-[5-(4-fluoro-benozyl)-pyridin-3-yl]-pyrrolidin-1-yl}-5-((S)-2-methylamino-propionylamino)-6-oxo-hexyl]-amide}], the values for the EC50 on XIAP-BIR3 and at cIAP1-BIR3 were 97.2 to 108 nM and 0.71 nM, respectively. In addition, the IC50 was in the range of 9.64 to 16.4 nM in the experiment with SKOV3 tumor cells and 5.22 to 27.9 nM in the experiment on Panc3.27 tumor cells.

In the case of `CN[C@@H](C)C(=O)N[C@@H](CCCCNS(=O)(=O)c1ccc(-c2ccc(S(=O)(=O)NCCCC[C@H](NC(=O)[C@H](C)NC)C(=O)N3CCC[C@H]3c3cncc(C(=O)c4ccc(F)cc4)c3)cc2)cc1)C(=O)N1CCC[C@H]1c1cncc(C(=O)c2ccc(F)cc2)c1` [Example 1D, (S)-N-((S)-1-((S)-2-(5-(4-fluorobenzoyl)pyridin-3-yl)pyrrolidin-1-yl)-6-(4′-(N-((S)-6-((S)-2-(5-(4-fluorobenzoyl)pyridin-3-yl)pyrrolidin-1-yl)-5-((S)-2-(methylamino)propanamido)-6-oxohexyl)sulfamoyl)biphenyl-4-ylsulfonamido)-1-oxohexan-2-yl)-2-(methylamino)propanamide], the values for the EC50 at XIAP-BIR3 and on cIAP1-BIR3 were 88.5 to 129 nM and 0.31 to 0.34 nM, respectively. The IC50 with SKOV3 tumor cells was 37.4 to 84.2 nM; in the experiment with Panc3.27 tumor cells it was 12.3 to 119 nM.

Consider `CN[C@@H](C)C(=O)N[C@@H](Cc1ccc(NC(=O)c2cccc(C(=O)Nc3ccc(C[C@H](NC(=O)[C@H](C)NC)C(=O)N4CCC[C@H]4c4cncc(C(=O)c5ccc(F)cc5)c4)cc3)c2)cc1)C(=O)N1CCCC1c1cncc(C(=O)c2ccc(F)cc2)c1` (stereo partly drawn) [Example 2D, N,N′-Bis-{4-[(S)-3-{(S)-2-[5-(4-fluoro-benzoyl)-pyridin-3-yl]-pyrrolidin-1-yl}-2-((S)-2-methylamino-propionylamino)-3-oxo-propyl]-pheny}-isophthalamide], for which the EC50 was 228 to 238 nM on XIAP-BIR3 and 0.66 to 0.68 nM on cIAP1-BIR3. Further, the IC50 in the experiment with SKOV3 tumor cells was 107 to 291 nM; in the experiment with Panc3.27 tumor cells, 167 to 694 nM.

For `CN[C@@H](C)C(=O)N[C@@H](Cc1ccc(NC(=O)CCCCC(=O)Nc2ccc(C[C@H](NC(=O)[C@H](C)NC)C(=O)N3CCC[C@H]3c3cncc(C(=O)c4ccc(F)cc4)c3)cc2)cc1)C(=O)N1CCC[C@H]1c1cncc(C(=O)c2ccc(F)cc2)c1` [Example 2C, Hexanedioic acid bis-({4-[(S)-3-{(S)-2-[5-(4-fluoro-benzoyl)-pyridin-3-yl]-pyrrolidin-1-yl}-2-((S)-2-methylamino-propionylamino)-3-oxo-propyl]-phenyl}-amide)], the figures for the EC50 at XIAP-BIR3 and on cIAP1-BIR3 were 125 to 138 nM and 0.58 to 0.6 nM, respectively. Also, the IC50 with SKOV3 tumor cells is 59.7 to 317 nM; in the experiment on Panc3.27 tumor cells, 144 to 391 nM.

Turning to `CN[C@@H](C)C(=O)N[C@@H](CCCCNC(=O)CCCCCCCC(=O)NCCCC[C@H](NC(=O)[C@H](C)NC)C(=O)N1CCC[C@H]1c1cncc(C(=O)c2ccc(F)cc2)c1)C(=O)N1CCC[C@H]1c1cncc(C(=O)c2ccc(F)cc2)c1` [Example 1F, Nonanedioic acid bis-{[(S)-6-{(S)-2-[5-(4-fluoro-benzoyl)-pyridin-3-yl]-pyrrolidin-1-yl}-5-((S)-2-methylamino-propionylamino)-6-oxo-hexyl]-amide}], the EC50 on XIAP-BIR3 lay within 129 to 145 nM; at cIAP1-BIR3, 0.68 to 0.69 nM. Besides, the IC50 lay within 16.1 to 20.1 nM in the experiment with SKOV3 tumor cells and 12.8 to 106 nM in the experiment with Panc3.27 tumor cells.

Take `CN[C@@H](C)C(=O)N[C@@H](CCCCNC(=O)c1ccc(C(=O)NCCCC[C@H](NC(=O)[C@H](C)NC)C(=O)N2CCC[C@H]2c2cncc(C(=O)c3ccc(F)cc3)c2)cc1)C(=O)N1CCC[C@H]1c1cncc(C(=O)c2ccc(F)cc2)c1` [Example 1C, N,N′-Bis-[(S)-6-{(S)-2-[5-(4-fluorobenzoyl)-pyridin-3-yl]-pyrrolidin-1-yl}-5-((S)-2-methylamino-propionylamino)-6-oxo-hexyl]-terephthalamide]: the EC50 on XIAP-BIR3 fell in the range of 413 to 425 nM; at cIAP1-BIR3 it was 4.75 to 4.89 nM. Moreover, the results for the IC50 with SKOV3 tumor cells and in the experiment on Panc3.27 tumor cells were 84 to 127 nM and 63.3 to 147 nM, respectively.

With `CN[C@@H](C)C(=O)N[C@@H](Cc1ccc(NC(=O)CCCCCCCCC(=O)Nc2ccc(C[C@H](NC(=O)[C@H](C)NC)C(=O)N3CCC[C@H]3c3cncc(C(=O)c4ccc(F)cc4)c3)cc2)cc1)C(=O)N1CCC[C@H]1c1cncc(C(=O)c2ccc(F)cc2)c1` [Example 2B, Decanedioic acid bis-({4-[(S)-3-{(S)-2-[5-(4-fluoro-benzoyl)-pyridinyl-3-yl]-pyrrolidin-1-yl}-2-((S)-2-methylamino-propionylamino)-3-oxo-propyl]-phenyl}-amide)], the figures for the EC50 at XIAP-BIR3 and on cIAP1-BIR3 were 131 to 194 nM and 0.37 to 0.41 nM, respectively. The IC50 in the experiment on SKOV3 tumor cells fell in the range of 7.39 to 15.4 nM; in the experiment with Panc3.27 tumor cells it was 11.7 to 25.9 nM.

`CN[C@@H](C)C(=O)N[C@@H](Cc1ccc(NC(=O)CCCCCC(=O)Nc2ccc(C[C@H](NC(=O)[C@H](C)NC)C(=O)N3CCC[C@H]3c3cncc(C(=O)c4ccc(F)cc4)c3)cc2)cc1)C(=O)N1CCC[C@H]1c1cncc(C(=O)c2ccc(F)cc2)c1` [Example 2A, Heptanedioic acid bis-({4-[(S)-3-{(S)-2-[5-(4-fluoro-benzoyl)-pyridin-3-yl]-pyrrolidin-1-yl}-2-((S)-2-methylamino-propionylamino)-3-oxo-propyl]-phenyl}-amide)]: the EC50 at XIAP-BIR3 was 146 to 154 nM; on cIAP1-BIR3, 0.73 to 0.74 nM. The IC50 with SKOV3 tumor cells lay within 23.5 to 25.8 nM.
